Common to all, as to type: in vivo
The subject of experiment [1] is PLCβ4 knock-out mouse. Briefly: Change of SWD after injection of PKC agonist or calcium channel blocker into the thalamus relay nuclei, EEG measurement.
In experiment [2] the test system is PLCβ4 knock-out mouse. Briefly: Sensitivity to absence seizure inducing agents (GABAB receptor agonists), EEG measurement. Particulars: PLCβ4 knock-out mouse compared with normal mouse.
The test system of experiment [3] is PLCβ4 knock-out mouse. Put plainly: SWD reduction by ethosuximide, EEG measurement. The following applies: 200 mg/kg intraperitoneal, EEG recorded 1 hour, starting 30 minutes after injection, compared with NaCl control.
Where [4] appears, read: 10 pmol injected into thalamus relay nuclei, compared with before / 0.9% NaCl.

The results in this text go back to patent US8313744B2, “Composition for the prevention and treatment of absence seizures comprising PKC agonist as an effective ingredient” (Korea Institute of Science and Technology, priority 2010, dated 2012).

Structures are written as SMILES.

As to `CCCCCCCCCC(=O)O[C@@H]1[C@@H](C)[C@@]2(O)[C@@H](C=C(CO)C[C@]3(O)C(=O)C(C)=C[C@@H]23)[C@@H]2C(C)(C)[C@]12OC(=O)CCCCCCCCC` [PDD, phorbol 12,13-didecanoate], the “SWD (hourly number) in EEG” value is “significantly reduced” in the experiment with PLCβ4 knock-out mouse [1] (setting [4]) and “reduced” with PLCβ4 knock-out mouse [1] (10 pmol injected into thalamus relay nuclei, compared with before / 0.9% NaCl, listed as phorbol 12,13-didecanoate). For `O=C1CCCO1` [γ-butyrolactone], the “absence seizure specific SWD” value with PLCβ4 knock-out mouse [2] (after absence seizure inducing drug) was “increased”. In addition, the “duration of paroxysmal SWD after drug administration” value with PLCβ4 knock-out mouse [2] (intraperitoneal, γ-butyrolactone 40 or 70 mg/kg, RS(+/−)-baclofen 20 mg/kg) is “continued even longer”. With `CCC1(C)CC(=O)NC1=O` (centres unmarked) [ethosuximide], the “SWD (spike-and-wave discharge) in EEG” value in the experiment on PLCβ4 knock-out mouse [3] was “significantly reduced”. For `CCCCCCCCCCCCCC(=O)O[C@@H]1[C@@H](C)[C@@]2(O)[C@@H](C=C(CO)C[C@]3(O)C(=O)C(C)=C[C@@H]23)[C@@H]2C(C)(C)[C@]12OC(C)=O` [PMA, phorbol 12-myristate 13-acetate], the “SWD (hourly number) in EEG” value was “significantly reduced” in the experiment with PLCβ4 knock-out mouse [1] (setting [4]) and “reduced” in the experiment on PLCβ4 knock-out mouse [1] (10 pmol injected into thalamus relay nuclei, compared with before / 0.9% NaCl, listed as phorbol 12-myristate 13-acetate).

As to `COCC(=O)O[C@]1(CCN(C)CCCc2nc3ccccc3[nH]2)CCc2cc(F)ccc2[C@@H]1C(C)C` [mibefradil], the “SWD (hourly number) in EEG” value in the experiment on PLCβ4 knock-out mouse [1] (1 nmol injected into thalamus relay nuclei) is “significantly reduced”.
